From US20080227638A1, “Use of abscisic acid to enhance growth control” (priority 2007, published 2008)

Legend:
Format in all cases: in vivo
[1] = tested on: Tall fescue, cv K-31; assay: Tall fescue cv K-31 height, ABA and trinexapac-ethyl (Example 6)
Method: (§1) Greenhouse studies were conducted at the Research Farm of Valent BioSciences Corporation (Long Grove, Ill.). Grasses were grown in pots (18 cm in diameter and 18 cm in height) filled with Promix BX (available from Premier Horticulture Inc. Quakertown, Pa.). Grass was irrigated daily by an overhead irrigation system. The irrigation system was set up with multiple Tornado Mist Spray Heads (10 GPH at 40 PSI-Wetted diameter, NDS/Raindrip, Woodland Hills, Calif.). Spray heads were 1-meter apart from each other and 75 cm above grass canopy. Grass was cut with a scissor at 2.5 cm height and fertilizer (1 g/L all purpose fertilizer 20-20-20, available from The Scotts Company, Marysville, Ohio) was applied once per week.
(§2) Chemical solutions were prepared with distilled water. Tween 20 (0.05% v/v) was used as an, adjuvant. Both trinexapac-ethyl (commercial product Primo Maxx, 11.3% active ingredient) and paclobutrazol (commercial product Trimmit 2SC, 22.3% active ingredient) were purchased from Syngenta Crop Protection Inc. (Greensboro, N.C.). Uniconazole-P (commercial product Sumagic, 0.55% active ingredient) was obtained from Valent U.S.A. Corporation (Walnut Creek, Calif.).
(§3) When treated with paclobutrazol or uniconazole-P, turfgrass received irrigation within 24 hours after application to flush chemicals to the root zone. After treatment, turfgrasses were arranged in a randomized complete block experimental design. Turfgrass quality, turfgrass height or clip fresh weight was measured on assigned dates. Turfgrass quality was visually rated on a 0-9 scale based on the color, uniformity and density of the grass with 0 as the worst and 9 as the best. Turfgrass height was measured as the distance between canopy surface and soil. Clips were collected from each plot; all plots were cut to a uniform height.
(§4) All experiments were randomized complete block experimental design. Data were analyzed by analysis of variance. Duncan's new multiple range tests at α=0.05 were used for mean separations.

[2] = tested on: Kentucky bluegrass cv Midnight; assay: Kentucky bluegrass cv Midnight height, ABA and trinexapac-ethyl (Example 6); conditions: 7 days after treatment
Method: as §1
Chemical solutions were prepared with distilled water. Tween 20 (0.05% v/v) was used as an, adjuvant. […]
When treated with paclobutrazol or uniconazole-P, turfgrass received irrigation within 24 hours after application to flush chemicals to the root zone. […] Turfgrass quality, turfgrass height or clip fresh weight was measured on assigned dates. […] Turfgrass height was measured as the distance between canopy surface and soil. […]
All experiments were randomized complete block experimental design. Data were analyzed by analysis of variance. […]

[3] = tested on: creeping bentgrass; assay: Golf course green creeping bentgrass height, clip weight and quality, ABA and uniconazole-P (Example 5); conditions: 200 ppm ABA
Method: Field studies were conducted at the nursery green or the practice green at Countryside golf course (Mundelein, Ill.). Both greens were sand based and growing Penncross creeping bentgrass. Grass was managed with typical Illinois golf course management practices.
as §2, §3, §4
Tween 20 (0.05% w/v) was included as an adjuvant.

[4] = tested on: Bermudagrass; assay: Bermudagrass clip weight, ABA and uniconazole-P (Example 7); conditions: 200 ppm ABA; 7 days after treatment
Method: as §2, §3, §4

[5] = tested on: Kentucky bluegrass; assay: Greenhouse Kentucky bluegrass height, ABA and uniconazole-P (Example 3); conditions: 200 ppm ABA
Method: as §1, §2, §3, §4
Kentucky bluegrass sod (unknown variety) was purchased from Deak sod farms, Inc. (Union Grove, Wis.). Grass was grown in the greenhouse in pots (n=6 pots per treatment) for establishment before treatment. […] Tween 20 (0.05% w/v) was included as an adjuvant. The turfgrass was cut every 7 days.

[6] = tested on: Kentucky bluegrass; assay: Greenhouse Kentucky bluegrass height and quality, ABA and paclobutrazol (Example 2); conditions: 200 ppm ABA
Method: as §1, §2, §3, §4
Kentucky bluegrass sod (unknown variety) was purchased from Deak sod farms, Inc. (Union Grove, Wis.). Grass was grown in the greenhouse in pots (n=6 pots per treatment) for establishment before treatment. […] Turfgrass quality was evaluated at 7 days after treatment, and turfgrass height was measured at 7 and 28 days after treatment. Tween 20 (0.05% w/v) was included as an adjuvant. The turfgrass canopy was cut every 7 days during the experimental period.

CCOC(=O)C1CC(=O)C(=C(O)C2CC2)C(=O)C1 (stereo not drawn) [trinexapac-ethyl]
Turfgrass height ([1]; 80 ppm trinexapac-ethyl, 7 days after treatment): 11.8 cm | Turfgrass height ([1]; 80 ppm trinexapac-ethyl, 21 days after treatment): 19.8 cm | Turfgrass height ([1]; 160 ppm trinexapac-ethyl, 7 days after treatment): 9.7 cm | Turfgrass height ([1]; 160 ppm trinexapac-ethyl, 21 days after treatment): 20.1 cm | Turfgrass height ([2]; 80 ppm trinexapac-ethyl): 7.6 cm | Turfgrass height ([2]; 160 ppm trinexapac-ethyl): 6.7 cm

S-abscisic acid [ABA]
Clip weight ([3]; 7 days after treatment): 2.0 g | Turfgrass height ([3]; 7 days after treatment): 5.0 cm | Clip weight ([3]; 49 days after treatment): 2.7 g | Turfgrass height ([3]; 49 days after treatment): 4.6 cm | Clip weight [4]: 1.8 g | Turfgrass height ([5]; 7 days after treatment): 12.3 cm | Turfgrass height ([5]; 42 days after treatment): 9.4 cm | Turfgrass height ([6]; 7 days after treatment): 11.7 cm | Turfgrass height ([6]; 28 days after treatment): 9.7 cm
